The nature of data set [1]: Vapor pressure of fluorocarbons.
A short description of data set [2]: Surface and interfacial tensions and spreading coefficients of perfluorocarbons on saline. The data set is classed as physicochemical. Also on record: S(o on w) spreading coefficient: unit: mN/m. The conditions noted are these: T = 25 C; for γo/w (interfacial tension oil/water) / S(o on w) spreading coefficient: on saline; for S(o on w) spreading coefficient: S = γw/a − (γw/o + γo/a). The text has this: The ability of a given substance to cover a measured surface area can be described by its spreading coefficient. The spreading coefficients for fluorocarbons can be expressed by the following equation:
S(o on w)=γw/a−(γw/o+γo/a)
Where S (o on w) represents the spreading coefficient; γ=interfacial tension; w/a=water/air; w/o=water/oil; and o/a=oil/air.
Fluorocarbons having spreading coefficients of at least one are particularly preferred. If the spreading coefficient is negative, the compound will tend to remain as a lens on the membrane surface. Adequate coverage of the lung surface is important for restoring oxygen and carbon dioxide transfer and for lubricating the lung surfaces to minimize further pulmonary trauma.
Each perfluorocarbon tested is provided together with its molecular weight and the specific variables that are used to calculate the spreading coefficient S (o on w). The perfluorocarbons reported are PFOB, perfluorotributylamine (FC-17), perfluorodecalin (APF-140), dimethyl perfluorodecalin (APF-175), trimethyl decalin (APF-200), perfluoroperhydrophenanthrene (APF-215), pentamethyl decalin (APF-240), and octamethyl decalin (APF-260).

The subject of data set [3] is rabbits following lung lavage to remove endogenous surfactant. The data set can be described thus: Partial liquid ventilation with PFOB in rabbit model of respiratory insufficiency induced by lung lavage. The data set is classed as in vivo, New Zealand rabbits. The note with it: rabbits after lung lavage. Here is the method:
The following examples provide information relating to the effect of PFOB treatment on respiratory insufficiency in an experimental rabbit model. The general protocol for partial liquid ventilation of the rabbits is described below.
New Zealand rabbits weighing between 2.8 and 3.0 kg were anesthetized with 50 mg/kg of […] sodium iv and a cannula was inserted through a tracheotomy midway along the trachea with its tip proximal to the carina. Ventilation with a Servo ventilator 900C (Siemens-Elema, Sweden) was initiated using pure oxygen and zero end-expiratory pressure with a constant tidal volume of 12 ml/kg, frequency of 30/min and inspiratory time of 35%. Anesthesia was maintained with additional doses of pentobarbital, as required, and pancuronium bromide was administered as an intravenous bolus (0.1 mg/kg) and followed by a continuous infusion (0.1 mg/kg/hr) for muscle paralyzation. A solution of 5% dextrose and 0.45% NaCl was administered continuously at a rate of 10 ml/kg/hr as a maintenance fluid. A heating pad maintained core temperature at 37±1° C., monitored by an esophageal thermistor (Elektroalboratoriet, Copenhagen).
Left femoral artery and vein were each cannulated with polyvinyl catheters for arterial and central venous pressure recording and blood sampling. A special indwelling catheter (Mikro-pO2-Messkatheter, Licox) was inserted into the right femoral artery for continuous oxygen pressure monitoring (Licox, GMS, Germany). Arterial blood gas and Hb (hemoglobin) measurements were made by Osm-2 Hemoximeter and ABL-330 (Radiometer Copenhagen). Lung mechanics and end-tidal CO2 were measured by means of Lung Mechanics Calculator 940 (Siemens-Elema, Sweden) and CO2 Analyzer 930 (Siemens-Elema, Sweden), respectively. Intravascular pressure monitoring was made by using a Statham P23XL transducer (Spectramed, USA) and all tracings including ECG were recorded by a Sirecust 1280 recorder (Siemens).
After the control observations were made, lung lavage with 30 ml/kg of warm saline (37° C.) was performed to induce respiratory insufficiency. After the first lavage, positive end expiratory pressure (PEEP) was increased to 6 cmH2O and lung lavages were repeated to get an arterial pO2 below 100 mmHg with the initial ventilatory settings (between 4-6 lavages). […]
After respiratory insufficiency was induced, PFOB liquid was administered through the tracheal cannula into the animal's lungs with incremental doses of 3 ml/kg up to a total volume of 15 ml/kg. Animals were ventilated for 15 minutes after each dose of PFOB instillation with the same ventillatory settings as mentioned above and thereafter arterial blood gases, cardiocirculatory parameters and pulmonary mechanics were measured. […]

In the case of `FC(F)(F)C(F)(F)C(F)(F)C(F)(F)C(F)(F)C(F)(F)Br` [1-bromotridecafluorohexane], in data set [1], the “vapor pressure (in words)” value was “relatively high vapor pressures”.
On to `FC1(F)C(F)(F)C(F)(F)C2(F)C(F)(F)C(F)(F)C(F)(F)C(F)(F)C2(F)C1(F)F` (stereo not drawn) [APF-140, perfluorodecalin], for which, in data set [2], the “γo/a (interfacial tension oil/air)” value was 18.2 mN/m and the “γo/w (interfacial tension oil/water)” value amounted to 55.3 mN/m.
For `FC1(F)C(F)(F)C(F)(F)C2(F)C(F)(C1(F)F)C(F)(F)C(F)(F)C1(F)C(F)(F)C(F)(F)C(F)(F)C(F)(F)C12F` (stereo not drawn) [APF-215, perfluoroperhydrophenanthrene], in data set [2], the “γo/a (interfacial tension oil/air)” value is reported as 21.6 mN/m, the “γo/w (interfacial tension oil/water)” value came out at 56.0 mN/m and the “S(o on w) spreading coefficient” value is −5.6.
Turning to `FC(F)(F)C(F)(F)C(F)(F)C(F)(F)N(C(F)(F)C(F)(F)C(F)(F)C(F)(F)F)C(F)(F)C(F)(F)C(F)(F)C(F)(F)F` [FC-47, perfluorotributylamine], in data set [2], the “γo/a (interfacial tension oil/air)” value stood at 17.9 mN/m and the “γo/w (interfacial tension oil/water)” value was found to be 55.1 mN/m.
On to `FC(F)(F)C(F)(F)C(F)(F)C(F)(F)C(F)(F)C(F)(F)C(F)(F)C(F)(F)Br` [PFOB, 1-bromo-heptadecafluoro-octane], for which, in data set [2], the “γo/a (interfacial tension oil/air)” value stood at 18.0 mN/m and the “γo/w (interfacial tension oil/water)” value amounted to 51.3 mN/m. In addition, the “arterial oxygen pressure as percent of original (pre-lavage) value” in data set [3] (15 ml/kg PFOB intratracheal, n = 6) amounted to 83%. Besides, the “mean arterial carbon dioxide tension (in words)” value in data set [3] (after PFOB administration, post-lavage level 48.7 mmHg) is on record as “decreased”. The “mean airway pressure (in words)” value in data set [3] (increasing volumes of PFOB) is reported as “decreased mean airway pressure”. The “arterial oxygen tension (in words)” value in data set [3] (increasing volumes of PFOB 3-15 ml/kg intratracheal, compared to saline treated controls) is on record as “significantly improved the arterial oxygen tension”. The same compound had a vapor pressure in data set [1] (37° C.) of 14 torr.
Regarding dimethyl perfluorodecalin [APF-175], in data set [2], the “γo/a (interfacial tension oil/air)” value was determined as 20.7 mN/m, the “γo/w (interfacial tension oil/water)” value is given as 55.9 mN/m and the “S(o on w) spreading coefficient” value was −4.6.
Consider octamethyl decalin [APF-260], for which, in data set [2], the “γo/a (interfacial tension oil/air)” value turned out to be 22.4 mN/m, the “γo/w (interfacial tension oil/water)” value was 56.1 mN/m and the “S(o on w) spreading coefficient” value is listed as −6.5.
Take pentamethyl decalin [APF-240]: in data set [2], the “γo/a (interfacial tension oil/air)” value is 22.6 mN/m, the “γo/w (interfacial tension oil/water)” value was determined as 56.3 mN/m and the “S(o on w) spreading coefficient” value is listed as −6.9.
For trimethyl decalin [APF-200], in data set [2], the “γo/a (interfacial tension oil/air)” value came out at 21.4 mN/m, the “γo/w (interfacial tension oil/water)” value stood at 55.9 mN/m and the “S(o on w) spreading coefficient” value is on record as −5.3.

The values are drawn from patent publication US20030056788A1, “Partial liquid breathing of fluorocarbons” (priority 1991, published 2003).
